{"source": "paper PMC6268373", "about": "“Systematic Study of the Physicochemical Properties of a Homologous Series of Aminobisphosphonates” (Molecules, 2012)", "key": {"[1]": {"test": "pKa determination with Sirius instrument (PCA200)"}, "[2]": {"test": "Protonation constants by (traditional) potentiometric titration (TPT), SUPERQUAD", "settings": "0.1 M NaNO3, 25 °C; for pKa: aqueous 0.1 M NaNO3, log K, TPT", "source_text": "Results were obtained from […] as overall stability constants (log β values); following the chosen zero level H2L^2−. This zero level H2L^2− was chosen in the calculations to avoid any accumulation of errors of protonation constants at different pH ranges. The log β results for reactions (4) and (5) obtained in the final refinements are listed in Table S3 (see Supporting Information) with error limits (±3σ), number of points/number of titrations and χ^2/Σ statistics.\nThe details of the experiments using (traditional) potentiometric titration are presented in the Supporting Information. The results of the determination by Sirius instrument are shown in the Supporting Information. Potentiometric titrations of the compounds were performed with the PCA200 apparatus (Sirius Analytical Instruments Ltd, Forest Row, East Sussex, UK).\nTable S2. The effect of pH on aqueous solubility (mg/L) of aminoalkylbis(phosphonates) […]\nSolubility (g/L) of Compound\nDetermination of the Protonation Constants Using (traditional) Potentiometric Titration. Reagents:\nAqueous 0.1 M NaOH was prepared from Titrisol ampoules (Merck) and 0.1 M HNO3 from Convol ampoules (BDH). The background solution was prepared by dissolving NaNO3 in deionised water.\nThe NaNO3 and NaCl used in reference electrode were p.a. grade (Merck). The water used in the dilutions and titration solutions was purified with Milli-RO and Milli-Q water purification systems […]\nPotentiometric measurements: The protonation equilibria was studied in aqueous 0.1 M NaNO3 at 25.0 ± 0.1 °C through a series of potentiometric EMF titrations carried out with a Schott-Geräte GmbH […]\nThe cell arrangement for the measurement of the hydrogen ion concentration [H+] was as follows:\n−RE […] equilibrium solution […] GE+ (1) where GE denotes a glass electrode (Schott N2680), and RE is Hg, Hg2Cl2 […] 0.01 M NaCl, 0.09 M NaNO3. Expression (2) is valid assuming that the activity coefficients are constant.\nThe cell parameter E0 and the liquid junction coefficient jH, valid in acidic solutions, were determined for each titration by adding a known amount of HNO3 to the background electrolyte. The value of the liquid junction coefficient jOH, valid in basic solutions, was determined periodically. Only stable EMF readings were used in the calculations.\nDuring the measurements of the protonation equilibria, aqueous 0.1 M NaOH or 0.1 M HNO3 was […]\nFour to eight independent titrations were carried out for each ligand. The number of data points used in […]\nData treatment: Protonation and deprotonation of the ligands were controlled by addition of HNO3 or NaOH. The curves of ZH versus pH were drawn to visualize the experimental data sets. ZH describes the average number of H+ ions added or liberated per mole of ligand and is given by the relationship […]\nwhere CH denotes the total concentration of protons calculated over the zero level H2L2−.\nIn the evaluation of the equilibrium constants, the following two-component equilibria were utilized:\nH2L2− ⇋ H2-xL(2+x)– + xH+ , x = 1–2; β–x (4) xH+ + H2L2− ⇋ Hx+2Lx–2, x = 1–3; βx (5)\nMathematical analysis of the systems involves a search for protonation models and equilibrium constants that best describe the experimental data. The calculations were carried out with the computer […]\n1200). The sample standard deviation Σ and the χ2 statistics used as criteria in the selection of the models were those provided by the program. As a means to improve the confidence level, the error limits for log β values determined in this study are reported as three times the standard deviation estimated by the program.\nFigure S2. ZH vs. pH for protonation of compounds (a) 1; (b) 2; (c) 3; (d) 4 and (e) 5."}, "[3]": {"test": "Thermal analysis (TG/DTA and TGA 7)", "format": "physicochemical", "settings": "for Td: 5 °C/min; for Temp. range of 1st cleavage: lower limit taken at 0.5 wt-%", "procedure": "Thermal decomposition paths with evaluation of crystal water content were obtained parallel with two instruments; Perkin Elmer STA 6000 thermogravimetric TG/DTA and Perkin Elmer TGA 7 analyzers (Perkin Elmer, Massachusetts, USA). Measurements were carried out in an open platinum crucible (the higher 5 mm crucible was used in TG/DTA and a shallower 2 mm crucible in TGA 7) under air atmosphere (flow rate of 45 mL/min) with a heating rate of 5 °C/min over the temperature range of 25−700 °C. The temperature calibration of STA 6000 was made using melting points of indium (156.60 °C) and zinc (419.5 °C) standards. For TGA 7 magnetic Curie-point calibration technique (Alumel, Ni, Perkalloy, Fe) was used. The weight balance of both instruments was calibrated by measuring a standard weight of 50 mg at room temperature. The sample weights used in the measurements were about 4–8 mg, and for each bisphosphonate, it was attempted to keep the same on both instruments. The melting/dehydration/decomposition behavior of the compounds was also visually monitored using a Stuart Scientific SMP3 melting point apparatus."}, "[4]": {"settings": "cited from earlier work; for logK, pKa3: H2L2− + H+ ⇋ H3L−; for logK, pKa2: H3L− + H+ ⇋ H4L; for logK, pKa1: H4L + H+ ⇋ H5L+; for logK, pKa4: HL3− + H+ ⇋ H2L2−; for logK, pKa5: L4− + H+ ⇋ HL3−"}, "[5]": {"test": "Aqueous solubility of saturated solution at 21 °C (phosphorus determination by molybdenum blue spectrophotometry)", "protocol": "A Jasco V-530 UV/Vis spectrophotometer was used for phosphorus determination at 880 nm wavelength. Filtered liquid samples were diluted to the appropriate volume with Milli-Q water and were digested with the persulphate oxidation technique in acidic medium at elevated temperature to convert aminobisphosponates to orthophosphate. In an acidic medium, ammonium molybdate and antimony potassium tartrate react with orthophosphate to form a phosphomolybdic acid that is reduced to intensively colored molybdenum blue by ascorbic acid [30].\nThe mixture containing an excess of the studied compound was first agitated for predetermined time with magnetic stirrer and before taking the sample mixture was allowed to stand for 24 h without stirring. The sample (about 5 mL) was taken from liquid above the solids, pH was measured and the sample was filtered through 0.2 µm membrane filter to remove any possible insoluble particles. The phosphorus concentration in the filtered sample solution was determined by using the spectrophotometric method described above."}, "[6]": {"settings": "overall protonation, zero level H2L2−"}}, "note": "Like-named read-outs stand apart in the source and are kept apart here.", "data": [{"smiles": "NCCC(O)(P(=O)(O)O)P(=O)(O)O", "note": "[Compound 1, (3-Amino-1-hydroxypropylidene)bisphosphonic acid]", "values": [{"measurement": "pKa 2 (Sirius)", "setting": "[1]", "value": 2.32}, {"measurement": "pKa 3 (Sirius)", "setting": "[1]", "value": 5.93}, {"measurement": "pKa 4 (Sirius)", "setting": "[1]", "value": 10.05}, {"measurement": "pKa 5 (Sirius)", "setting": "[1]", "value": 12.54}, {"measurement": "pKa", "setting": "[2]; pKa1 (H4L + H+ ⇋ H5L+), approximate values", "value": 1.06}, {"measurement": "pKa", "setting": "[2]; pKa2 (H3L− + H+ ⇋ H4L)", "value": 1.7}, {"measurement": "pKa", "setting": "[2]; pKa3 (H2L2− + H+ ⇋ H3L−)", "value": 5.9}, {"measurement": "pKa", "setting": "[2]; pKa4 (HL3− + H+ ⇋ H2L2−)", "value": 10}, {"measurement": "pKa", "setting": "[2]; pKa5 (L4− + H+ ⇋ HL3−)", "value": 12.9}, {"measurement": "logβx ± 3σ, x = 1 (H3L−)", "setting": "[2]; [6]", "value": "5.90 ± 0.02"}, {"measurement": "logβx ± 3σ, x = 2 (H4L)", "setting": "[2]; [6]", "value": "7.60 ± 0.05"}, {"measurement": "logβx ± 3σ, x = 3 (H5L+)", "setting": "[2]; [6]", "value": "8.66 ± 0.30"}, {"measurement": "logβx ± 3σ, x = −1 (HL3−)", "setting": "[2]; [6]", "value": "−10.04 ± 0.03"}, {"measurement": "logβx ± 3σ, x = −2 (L4−)", "setting": "[2]; [6]", "value": "−22.90 ± 0.23"}, {"measurement": "Onset temperature of first cleavage", "setting": "[3]; TG/DTA, higher crucible", "value": 149, "unit": "°C"}, {"measurement": "Td", "setting": "[3]; TG/DTA, higher crucible, air", "value": 149, "unit": "°C"}, {"measurement": "Temp. range of 1st cleavage", "setting": "[3]; TG/DTA, higher crucible", "value": "134–199 °C"}, {"measurement": "Onset temperature of first cleavage", "setting": "[3]; TGA 7, shallow crucible", "value": 155, "unit": "°C"}, {"measurement": "Td", "setting": "[3]; TGA 7, shallow crucible, air", "value": 155, "unit": "°C"}, {"measurement": "Temp. range of 1st cleavage", "setting": "[3]; TGA 7, shallow crucible", "value": "102–203 °C"}, {"measurement": "Td (decomposition onset)", "setting": "[3]; average from both instruments, air, heating rate 5 °C/min", "value": 152, "unit": "°C"}, {"measurement": "temperature of first decomposition step (cleavage of amino group / degradation)", "setting": "[3]; thermogravimetry, air", "value": "100–200 °C"}, {"measurement": "logK, pKa3", "setting": "[4]; first Ref.18 column", "value": 6.01}, {"measurement": "logK, pKa3", "setting": "[4]; ref 4", "value": 5.86}, {"measurement": "logK, pKa3", "setting": "[4]; ref 13", "value": 5.83}, {"measurement": "logK, pKa3", "setting": "[4]; ref 14", "value": 5.85}, {"measurement": "logK, pKa3", "setting": "[4]; ref 15", "value": 6.01}, {"measurement": "logK, pKa3", "setting": "[4]; ref 17", "value": 6.04}, {"measurement": "logK, pKa3", "setting": "[4]; second Ref.18 column", "value": 5.39}, {"measurement": "logK, pKa2", "setting": "[4]; ref 4", "value": 2.04}, {"measurement": "logK, pKa2", "setting": "[4]; ref 13", "value": 2.55}, {"measurement": "logK, pKa2", "setting": "[4]; ref 14", "value": 1.80}, {"measurement": "logK, pKa2", "setting": "[4]; ref 15", "value": 2.56}, {"measurement": "logK, pKa2", "setting": "[4]; ref 17", "value": 1.93}, {"measurement": "logK, pKa1", "setting": "[4]; ref 14", "value": "<1.2"}, {"measurement": "logK, pKa1", "setting": "[4]; ref 17", "value": 1.24}, {"measurement": "logK, pKa4", "setting": "[4]; first Ref.18 column", "value": 9.97}, {"measurement": "logK, pKa4", "setting": "[4]; ref 4", "value": 9.90}, {"measurement": "logK, pKa4", "setting": "[4]; ref 13", "value": 9.9}, {"measurement": "logK, pKa4", "setting": "[4]; ref 14", "value": 10.30}, {"measurement": "logK, pKa4", "setting": "[4]; ref 15", "value": 9.80}, {"measurement": "logK, pKa4", "setting": "[4]; ref 17", "value": 10.18}, {"measurement": "logK, pKa4", "setting": "[4]; second Ref.18 column", "value": 9.46}, {"measurement": "logK, pKa5", "setting": "[4]; first Ref.18 column", "value": 10.74}, {"measurement": "logK, pKa5", "setting": "[4]; ref 4", "value": 11.02}, {"measurement": "logK, pKa5", "setting": "[4]; ref 13", "value": 10.8}, {"measurement": "logK, pKa5", "setting": "[4]; ref 14", "value": 13.06}, {"measurement": "logK, pKa5", "setting": "[4]; ref 15", "value": 10.95}, {"measurement": "logK, pKa5", "setting": "[4]; ref 17", "value": 12.14}, {"measurement": "logK, pKa5", "setting": "[4]; second Ref.18 column", "value": 10.40}, {"measurement": "solubility at 30 min", "setting": "[5]; Milli-Q water, unbuffered, 21 °C, water, thermodynamic from solid", "value": 10.9, "unit": "mg/mL"}, {"measurement": "pH of saturated solution", "setting": "[5]; saturated aqueous solution, 21 °C, agitation time 30 min", "value": 4.62}, {"measurement": "water solubility (in words)", "setting": "[5]; water", "value": "almost freely soluble"}]}]}
